pIC50: −log10 of the molar value.

The target in one assay is T1, human SGLT1 (Homo sapiens, UniProt P13866).
T1 construct: expressed in transfected cells
T1 sequence (P13866 1-664): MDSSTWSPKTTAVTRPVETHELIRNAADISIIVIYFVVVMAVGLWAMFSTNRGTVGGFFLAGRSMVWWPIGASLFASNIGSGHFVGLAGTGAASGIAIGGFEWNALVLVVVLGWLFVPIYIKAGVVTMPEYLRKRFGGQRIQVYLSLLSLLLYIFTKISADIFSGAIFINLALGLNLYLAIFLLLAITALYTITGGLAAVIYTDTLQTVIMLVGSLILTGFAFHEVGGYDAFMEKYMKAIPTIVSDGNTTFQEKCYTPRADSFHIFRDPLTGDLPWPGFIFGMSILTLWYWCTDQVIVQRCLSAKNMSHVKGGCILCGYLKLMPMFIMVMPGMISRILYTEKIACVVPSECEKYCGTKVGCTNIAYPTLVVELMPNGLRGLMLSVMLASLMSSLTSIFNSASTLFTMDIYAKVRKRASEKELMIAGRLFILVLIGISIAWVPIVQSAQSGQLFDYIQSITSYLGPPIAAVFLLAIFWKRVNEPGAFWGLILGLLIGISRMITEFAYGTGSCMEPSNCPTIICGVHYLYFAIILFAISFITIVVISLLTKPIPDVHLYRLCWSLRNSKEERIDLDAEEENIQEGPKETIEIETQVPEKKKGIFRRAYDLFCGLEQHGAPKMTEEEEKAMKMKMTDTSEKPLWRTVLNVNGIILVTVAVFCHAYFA
The assay is described as follows: SGLT1 assay: Na-dependent 14C-AMG uptake in CHO-K1 cells stably expressing human SGLT1. It counts as cell-based. The settings on record: for pIC50: average if tested more than once; for SGLT1 %-inhibition: @ 0.3 μM. In a few lines: (§1)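 Stable CHO-K1 lines were pretreated 24 h with 10 mM Na-butyrate, then compound (0.001–10 μM) for 10 min in Na+ buffer (137 mM NaCl, pH 7.4). Uptake of 14C-AMG (500 μM final, 0.07 μCi/well) over 2 h at 37° C measured by scintillation; %-inhibition or IC50.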

The target in a further assay is T2, human SGLT2 (Homo sapiens, UniProt P31639).
T2 construct: expressed in transfected cells
T2 sequence (P31639 1-672): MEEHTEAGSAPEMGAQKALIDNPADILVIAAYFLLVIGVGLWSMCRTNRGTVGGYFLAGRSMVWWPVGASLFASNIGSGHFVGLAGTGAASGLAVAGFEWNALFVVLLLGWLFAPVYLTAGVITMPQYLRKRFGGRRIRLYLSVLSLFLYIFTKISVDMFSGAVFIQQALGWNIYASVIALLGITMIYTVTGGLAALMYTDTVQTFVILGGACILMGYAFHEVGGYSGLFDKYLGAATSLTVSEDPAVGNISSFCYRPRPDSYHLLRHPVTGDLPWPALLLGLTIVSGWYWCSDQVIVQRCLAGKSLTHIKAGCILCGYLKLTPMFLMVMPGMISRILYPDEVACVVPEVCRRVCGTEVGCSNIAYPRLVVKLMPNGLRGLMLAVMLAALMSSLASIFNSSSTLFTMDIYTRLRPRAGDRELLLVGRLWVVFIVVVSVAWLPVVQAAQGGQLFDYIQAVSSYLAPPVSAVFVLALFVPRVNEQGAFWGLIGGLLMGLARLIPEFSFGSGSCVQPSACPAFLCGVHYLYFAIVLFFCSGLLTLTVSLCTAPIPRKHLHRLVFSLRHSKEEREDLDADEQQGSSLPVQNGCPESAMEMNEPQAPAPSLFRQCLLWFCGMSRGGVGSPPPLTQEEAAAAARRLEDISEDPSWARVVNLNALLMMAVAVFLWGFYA
The assay is described as follows: SGLT2 assay: Na-dependent 14C-AMG uptake in CHO-K1 cells stably expressing human SGLT2. The settings on record: for pIC50: average if tested more than once; for SGLT2 %-inhibition: @ 0.3 μM. It counts as cell-based. An outline of the steps: as §1

For the compound `CCc1cc(O)c([C@@H]2O[C@H](CO)[C@@H](F)[C@H](O)[C@H]2O)cc1Cc1cc2ccccc2s1` [Compound 31], the figures for the negative-log IC50 (pIC50) against human SGLT1 and at human SGLT2 were 8.05 and 7.72, respectively.
In the same order, the values of `OC[C@H]1O[C@@H](c2cc(Cc3ccc4c(c3)OCCO4)c3c(c2)OCC3)[C@H](O)[C@@H](O)[C@@H]1F` [Compound 153] are 7.30 and 7.24.
Compound `COC[C@H]1O[C@@H](c2cc(Cc3cc4ccccc4s3)c(C)cc2O)[C@H](O)[C@@H](O)[C@@H]1F` [Compound 19] returned an SGLT1 %-inhibition at human SGLT1 of 47.6% @ 0.3 μM. Also, the SGLT2 %-inhibition on human SGLT2 was determined as 68.1% @ 0.3 μM.
`COc1cc(O)c([C@@H]2O[C@H](C)[C@@H](F)[C@H](O)[C@H]2O)cc1Cc1cc2ccccc2s1` [Compound 10]: the results for the pIC50 against human SGLT1 and against human SGLT2 were 7.07 and 7.09, respectively.
The corresponding values for `Cc1cc(O)c([C@@H]2O[C@H](CO)[C@@H](F)[C@H](O)[C@H]2O)cc1Cc1cc2c(s1)C(=O)CCO2` [Compound 129] are 6.75 and 8.15.
For `Cc1cc(O)c([C@@H]2O[C@H](C)[C@@H](F)[C@H](O)[C@H]2O)cc1Cc1cc2ccccc2s1` [Compound 16, (2S,3R,4R,5S,6R)-2-(5-(benzo[b]thiophen-2-ylmethyl)-2-hydroxy-4-methylphenyl)-5-fluoro-6-methyl-tetrahydro-2H-pyran-3,4-diol], the negative logarithm of the IC50 (pIC50) was 6.95 against human SGLT1 and 7.54 against human SGLT2.
With `[2H]C1([2H])Oc2ccc(Cc3cc([C@@H]4O[C@H](CO)[C@@H](F)[C@H](O)[C@H]4O)cc4c3CCO4)cc2OC1([2H])[2H]` [Compound 181], the SGLT1 %-inhibition at human SGLT1 worked out at 67.0% @ 0.3 μM. On human SGLT2, this compound came in with an SGLT2 %-inhibition of 85.0% @ 0.3 μM.
For `COc1cc(C)c(Cc2cc3ccccc3s2)cc1[C@@H]1O[C@H](CO)[C@@H](F)[C@H](O)[C@H]1O` [Compound 18], the results for the negative-log IC50 (pIC50) against human SGLT1 and against human SGLT2 were 7.17 and 7.74, respectively.
The corresponding values for `CCc1ccc(Cc2cc([C@@H]3O[C@H](CO)[C@@H](F)[C@H](O)[C@H]3O)c(OC)c3c2OCC3)cc1` [Compound 135] are 7.07 and 8.10.
Turning to `Cc1ccc([C@@H]2O[C@H](CO)[C@@H](F)[C@H](O)[C@H]2O)cc1Cc1cc2c(s1)CCCC2=O` [Compound 116], at human SGLT1, the SGLT1 %-inhibition worked out at 11.5% @ 0.3 μM. This compound returned an SGLT2 %-inhibition on human SGLT2 of 78.0% @ 0.3 μM.
In the case of `COc1c(Cc2cc3ccccc3s2)cc([C@@H]2O[C@H](CO)[C@@H](F)[C@H](O)[C@H]2O)c(OC)c1C` [Compound 15], the pIC50 was 7.00 against human SGLT1 and 7.17 against human SGLT2.
For the compound `Cc1cnc(N2CCc3sc(Cc4cc([C@@H]5O[C@H](CO)[C@@H](F)[C@H](O)[C@H]5O)c(O)cc4C)cc3C2)s1` [Compound 111], the results for the pIC50 against human SGLT1 and against human SGLT2 were 7.00 and 7.72, respectively.
In the same order, the values of `OC[C@H]1O[C@@H](c2cc(Cc3cc4ccccc4s3)c(Cl)cc2O)[C@H](O)[C@@H](O)[C@@H]1F` [Compound 7] are 7.74 and 8.22.
The corresponding values for `OC[C@H]1O[C@@H](c2cc3c(c(Cc4ccc5c(c4)OCCO5)c2)OCC3)[C@H](O)[C@@H](O)[C@@H]1F` [Compound 54] are 7.16 and 7.96.
In the same order, the values of `COc1c([C@@H]2O[C@H](CO)[C@@H](F)[C@H](O)[C@H]2O)cc(Cc2ccc3c(c2)NCCC3)c2c1CCO2` [Compound 105, (2S,3R,4R,5S,6R)-5-fluoro-6-(hydroxymethyl)-2-(4-methoxy-7-((1,2,3,4-tetrahydroquinolin-7-yl)methyl)-2,3-dihydrobenzofuran-5-yl)-tetrahydro-2H-pyran-3,4-diol] are 6.89 and 8.40.
`N#CN1CCc2sc(Cc3cc([C@@H]4O[C@H](CO)[C@@H](F)[C@H](O)[C@H]4O)c(O)cc3Cl)cc2C1` [Compound 114]: the results for the pIC50 on human SGLT1 and at human SGLT2 were 6.96 and 8.30, respectively.
For `OC[C@H]1O[C@@H](c2cc3c(c(Cc4ccc5c(c4)NCCC5)c2)OCC3)[C@H](O)[C@@H](O)[C@@H]1F` [Compound 89], the results for the negative-log IC50 (pIC50) on human SGLT1 and on human SGLT2 were 7.38 and 7.00, respectively.
In the case of `[2H]C1([2H])Oc2ccc(Cc3cc([C@@H]4O[C@H](CO)[C@@H](F)[C@H](O)[C@H]4O)ccc3CC)cc2OC1([2H])[2H]` [Compound 175], the values for the negative logarithm of the IC50 (pIC50) against human SGLT1 and against human SGLT2 were 7.06 and 7.92, respectively.
On human SGLT1, `CCc1ccc([C@@H]2O[C@H](CO)[C@@H](F)[C@H](O)[C@H]2O)cc1Cc1ccc2c(c1)OC(F)(F)O2` [Compound 159] came in with an SGLT1 %-inhibition of 6.0% @ 0.3 μM. The same compound yielded an SGLT2 %-inhibition at human SGLT2 of 0.0% @ 0.3 μM.
In turn, `[2H]C([2H])(c1ccc2c(c1)OCCO2)c1cc([C@@H]2O[C@H](CO)[C@@H](F)[C@H](O)[C@H]2O)ccc1CC` [Compound 157] displayed an SGLT1 %-inhibition at human SGLT1 of 47.7% @ 0.3 μM. For the same compound, the SGLT2 %-inhibition at human SGLT2 is reported as 61.9% @ 0.3 μM.
For `OC[C@H]1O[C@@H](c2cc3c(c(Cc4ccc5c(c4)CCCO5)c2)OCC3)[C@H](O)[C@@H](O)[C@@H]1F` [Compound 56], the negative logarithm of the IC50 (pIC50) on human SGLT1 was 6.28; at human SGLT2, 7.92.
In the same order, the values of `COc1cc(C)c(Cc2cc3c(s2)CCN(c2ncc(C)s2)C3)cc1[C@@H]1O[C@H](CO)[C@@H](F)[C@H](O)[C@H]1O` [Compound 123] are 5.87 and 7.00.
With `OC[C@H]1O[C@@H](c2cc(Cc3ccc4c(c3)SCCO4)c(Cl)c3c2OCC3)[C@H](O)[C@@H](O)[C@@H]1F` [Compound 127], on human SGLT1, the SGLT1 %-inhibition worked out at 63.2% @ 0.3 μM. For the same compound, the SGLT2 %-inhibition at human SGLT2 came out at 78.4% @ 0.3 μM.
In the same order, the values of `COc1cc(CO)c([C@@H]2O[C@H](CO)[C@@H](F)[C@H](O)[C@H]2O)cc1Cc1cc2ccccc2s1` [Compound 34] are 38.6% @ 0.3 μM and 27.6% @ 0.3 μM.
With `Cc1cc(O)c([C@@H]2O[C@H](CO)[C@@H](F)[C@H](O)[C@H]2O)cc1Cc1cc2ccccc2s1` [Compound 4], the pIC50 on human SGLT1 is 7.85; at human SGLT2, 8.40.
In turn, `Cc1cnc(N2CCc3sc(Cc4cc([C@@H]5O[C@H](CO)[C@@H](F)[C@H](O)[C@H]5O)ccc4C)cc3C2)s1` [Compound 122] had an SGLT1 %-inhibition on human SGLT1 of 31.7% @ 0.3 μM. At human SGLT2, this compound displayed an SGLT2 %-inhibition of 63.6% @ 0.3 μM.
Regarding `COc1cc(C)c(Cc2cc3c(s2)CCN(C(=O)c2nccs2)C3)cc1[C@@H]1O[C@H](CO)[C@@H](F)[C@H](O)[C@H]1O` [Compound 112, (2-(5-((2S,3R,4R,5S,6R)-5-fluoro-3,4-dihydroxy-6-(hydroxymethyl)-tetrahydro-2H-pyran-2-yl)-4-methoxy-2-methylbenzyl)-6,7-dihydrothieno[3,2-c]pyridin-5(4H)-yl)(thiazol-2-yl)methanone], the pIC50 at human SGLT1 is 6.42; against human SGLT2 it was 7.64.
Turning to `CC1(C)Oc2c(Cc3ccc4c(c3)OCCO4)cc([C@@H]3O[C@H](CO)[C@@H](F)[C@H](O)[C@H]3O)cc2C1CO` (some centres unmarked) [Compound 85], at human SGLT1, the SGLT1 %-inhibition stood at 37.4% @ 0.3 μM. At human SGLT2, this compound came in with an SGLT2 %-inhibition of 10.1% @ 0.3 μM.
The corresponding values for `COc1c([C@@H]2O[C@H](CO)[C@@H](F)[C@H](O)[C@H]2O)cc(Cc2ccc(OCF)cc2)c2c1CCO2` [Compound 142] are 59.8% @ 0.3 μM and 85.8% @ 0.3 μM.
`Cc1cc(O)c([C@@H]2O[C@H](CN)[C@@H](F)[C@H](O)[C@H]2O)cc1Cc1cc2ccccc2s1` [Compound 24]: the pIC50 was 6.01 against human SGLT1 and 6.48 against human SGLT2.
As for `COc1cc(C)c(Cc2cc3c(s2)CCN(C(=O)C2CCCC2)C3)cc1[C@@H]1O[C@H](CO)[C@@H](F)[C@H](O)[C@H]1O` [Compound 91], the SGLT1 %-inhibition on human SGLT1 was 31.7% @ 0.3 μM. At human SGLT2, this compound displayed an SGLT2 %-inhibition of 65.5% @ 0.3 μM.

The values are drawn from US11014917B2, “5-fluoro-c-(aryl or heterocyclyl)-glycoside derivatives useful as dual SGLT1 / SGLT2 modulators” (Janssen Pharmaceutica NV, priority 2017, dated 2021).
